Reference: a melting point compilation (Tetko et al.; mined from patent text by program, amines drawn as free bases though some values may be those of a salt)

Point of comparison: `OC(c1ccccc1)c1cc(Cl)ccc1CNC(=S)NCCc1ccccc1` (stereo not drawn), melting point 97 °C. Against it:
- O=S(=O)(NCCCn1cncn1)c1ccc(Cl)cc1 — lower, 77 to 79 °C
- Cc1ccc(Cl)cc1NC(=O)NCC1(c2ccccc2)CCCCC1 — higher, 200 to 202 °C
- O=S(=O)(/C=C/c1ccc(F)cc1)CS(=O)(=O)/C=C/c1ccc(F)cc1 — higher, 183 to 185 °C
- CN(c1ccccc1)S(=O)(=O)c1ccc(C#CC(C)(O)C(F)(F)F)cc1 (stereo not drawn) — higher, 116 to 118 °C
- CC1Cc2c(N3C(=O)C4=C(CCCC4)C3=O)ccc(Cl)c2O1 (stereo not drawn) — higher, 134 to 137 °C
- Cc1ccc(-c2n[nH]c(=O)c(-c3ccccc3)c2-c2ccc(C)cc2)cc1 — higher, 282 to 284 °C
- N#Cc1c(CCC(=O)O)oc2cc(O)ccc2c1=O — higher, 300 to 301 °C
- C[C@H](NN1C(=O)c2ccccc2S1(=O)=O)C(=O)N[C@@H](Cc1ccccc1)C(=O)O — higher, 190 to 193 °C
- COC(=O)Cc1cc2ccc(OC)cc2[nH]c1=O — higher, 195 to 196 °C
- CCOC(=O)c1cccc(Oc2ncccc2OCCCc2ccncc2O)c1 — lower, 76 to 79 °C
- O=C(Nc1ccccc1)c1c[nH]c2c1C(=O)CCC2 — higher, 225 to 226 °C
- Cc1c(C#N)sc2nc(-c3ccccc3)nc(N3CCN(C)CC3)c12 — higher, 223 to 225 °C
- COc1ccc(CCNS(=O)(=O)c2ccc([N+](=O)[O-])cc2)cc1 — lower, 92 to 93 °C
- O=S(=O)(CCC=C(F)F)c1nccc(-c2ccccc2)n1 — higher, 103 to 104 °C
- CC(=O)Nc1cccc(/C=C/C(=O)N2CC(CCl)c3c2cc(N)c2ccccc32)c1 (stereo not drawn) — higher, > 250 °C
- C=CCNc1nc(NCC=C)nc(N(CCCCCCN(c2nc(NCC=C)nc(NCC=C)n2)C2CC(C)(C)NC(C)(C)C2)C2CC(C)(C)NC(C)(C)C2)n1 — higher, 161 to 163 °C
- CC(C)(C)C(NC(=O)c1ccc(Cl)cc1)Nc1c(Nc2cccc(F)c2)c(=O)c1=O (stereo not drawn) — higher, 271 to 272 °C
- CCN1CCN(Cc2nc3sc4c(c3c(=O)n2-c2ccccc2Cl)CCCC4)CC1 — higher, 140 to 142 °C
- Cc1ccc(-c2nc(Cl)cc(-c3ccccc3)n2)cc1 — lower, 86 to 87 °C
- COc1ccc(-c2cnn3c(-c4cccc(NC(=O)CC(C)C)c4)ccnc23)cc1 — higher, 225 to 227 °C
- CC(C)OC(=O)c1cc2c(cn1)[nH]c1cccc(Cc3ccccc3Cl)c12 — higher, 258 to 260 °C
- O=C(CC1CCOCC1)Oc1cc(=O)n(-c2ccccc2)c2ncccc12 — higher, 169 to 171 °C
- COc1cc(Cc2cnc(N)nc2N)cc(C#Cc2ccc3ccccc3c2)c1OC — higher, 152 to 155 °C
- C=Cc1ccc(C(=O)O)cc1C12CC3CC(CC(C3)C1)C2 — higher, 315 to 317 °C
- COc1ccc(-n2nc(Sc3ccc(-c4ccccc4)cc3)c(C)c(C#N)c2=O)cc1 — higher, 205 to 207 °C
- CN1CCN(CC(=O)N2c3ccccc3C(=O)Nc3cccnc32)CC1 — higher, 198 to 200 °C
- COc1ccc(C2(C(=O)Oc3ccc(C(=O)NO)cc3)CCCCC2)cc1 — higher, 127 to 129 °C
- Cc1nnn(CC(I)=C(I)I)n1 — higher, 111 °C
- O=C(CI)CCc1ccccc1 — lower, 44 to 45 °C
- O=C1C(CCO)Oc2cc([N+](=O)[O-])ccc2N1Cc1ccc([N+](=O)[O-])cc1 (stereo not drawn) — higher, 100 to 104 °C
- COc1ccc2c(c1)c(CN(O)C(=O)CCC(=O)O)c(C)n2C(=O)c1ccc(Cl)cc1 — higher, 134 to 136 °C
- O=C(C1CCCCCC1)N1c2ccccc2CCC1CN1CCN(c2cccc3[nH]ccc23)CC1 (stereo not drawn) — higher, 167 to 173 °C
- COc1ccc(CC(C)NCC(O)c2ccccc2Cl)cc1OC (stereo not drawn) — higher, 113 to 114 °C
- CCCCCCc1cc2c(cc1C(=O)O)C(C)(C)CCC2(C)C — higher, 98 to 99 °C
- COc1cc2cc3c(Nc4ccc(Sc5nccn5C)c(Cl)c4)c(C#N)cnc3cc2cc1OCCCN1CCOCC1 — higher, 230 to 235 °C
- CCCC(CCC)C(=O)NCC(=O)NCCCCCNC(=O)n1cc(F)c(=O)[nH]c1=O — higher, 117 to 118 °C
- Cc1ccnc(N2CCN(CCCCC3Sc4cc(O)ccc4NC3=O)CC2)c1 (stereo not drawn) — higher, 212 °C
- C(#Cc1cccs1)C1=CCN(Cc2c[nH]c3ncccc23)CC1 — higher, 191 to 193 °C
- O=[N+]([O-])c1cc(F)c(NS(=O)(=O)c2ccccc2)cc1F — higher, 176 °C
- Cc1ccc(NC(=O)c2cccc(N(C)C)c2)cc1NC(=O)c1cccc(NS(C)(=O)=O)c1 — higher, 239 to 240 °C
- CN(CCN1CCCCC1)S(=O)(=O)c1cc([N+](=O)[O-])ccc1Sc1cc(Cl)cc(Cl)c1 — higher, 113 to 114 °C
- CC1=C(C#N)S(=O)(=O)c2ccc(C(F)(F)F)cc2N1 — higher, 329 to 333 °C
- Cc1ccccc1C1=C(c2cccc(OCc3ccccc3)c2)OS(=O)(=O)CC1 — higher, 257 to 259 °C
- CNC1=NS(=O)N=C1NCCSCc1ccc(CN(C)C)s1 (stereo not drawn) — higher, 98.5 to 102 °C
- CCC(CC)n1c(=O)ccc2cnc(Nc3ccccc3)nc21 — higher, 116 to 118 °C
- Cc1ccc(S(=O)(=O)n2c(CCCC(=O)O)cc3nc(Cl)ccc32)c(Cl)c1 — higher, 168 to 169 °C
- Cc1noc(NS(=O)(=O)c2ncccc2C(=O)Nc2ccccc2)c1C — higher, 199 to 200 °C
- CCOc1cc(C=CC(=O)OC)ccc1OCc1coc(-c2ccccc2)n1 — higher, 125 to 126 °C
- N#Cc1ccc(N2CCN(Cc3ccccc3)CC2)cc1 — higher, 104 to 105 °C
- O=C(OCc1ccccc1)On1nnc2ccccc21 — higher, 130 to 131 °C
- CCCCCCCCCCCCn1nnc(CC(=O)Nc2c(C(C)C)cccc2C(C)C)n1 — lower, 75 to 79 °C
- CCOc1ccc(-c2c(S(C)(=O)=O)ccc(C(=O)c3cnn(C(C)(C)C)c3O)c2C)cc1 — higher, 110 °C
- NS(=O)(=O)c1cc(CCNC(=O)C=Cc2cccs2)ccc1OCC1CCCO1 (stereo not drawn) — higher, 180 to 185 °C
- OC1CSC(Oc2cncc(-c3ccc(F)c(Cl)c3)c2)C(O)C1O (stereo not drawn) — higher, 200 to 201 °C
- Cc1ncccc1Oc1ccc(NC(=O)NCCc2ccccc2)cn1 — higher, 136 to 138 °C
- CN(C)CCCCCCNCc1ccc(-c2cc3ncnc(Nc4ccc5[nH]ccc5c4)c3s2)cc1 — higher, 134 to 148 °C
- FC(F)(F)c1cccc(-c2ccnc(Nc3ccc4c(c3)OCCO4)c2)c1 — higher, 139 to 140 °C
- Cc1c(C)c(OCC(=O)N2CCN(c3ccc(N=C(N)c4cccs4)cc3)CC2)c(C)c(C)c1O — higher, 210 to 212 °C
- N=C(N)c1ccc(NC(=O)NC(=O)c2ccc(OCC(=O)O)cc2)cc1 — higher, 285 to 288 °C
- CCCCCCCNC(=O)Nc1ccc(N(C)C)cc1C(=O)NCC1CCN(C(c2ccc(Cl)cc2)c2ccc(Cl)cc2)CC1 — higher, 216 °C
- CC(C)(C)OC(=O)N=C(c1ccc(C(=O)Nc2ccc(C(=O)NCCC(=O)OCc3ccccc3)cc2)cc1)N(C(=O)OC(C)(C)C)C(=O)OC(C)(C)C — higher, 164 to 165 °C
- Cc1oc(-c2ccccc2)nc1COc1nn(Cc2ccc(Oc3ccccc3)cc2)cc1C=O — higher, 129 to 130 °C
- CCCCCCCCCCCNC(=S)NCCCCCCCCCCC — lower, 70 to 72 °C
- Nc1ccccc1NC(=O)c1cc2cc(OCCO)ccc2[nH]1 — higher, 222 to 223 °C
- COc1cccc(-c2c(Cl)cccc2Cl)c1OC — lower, 49 to 50 °C
- CCOCc1nc2c(N)nc3cc(Br)ccc3c2n1CC1CCOCC1 — higher, 186 to 188 °C
- CCC1c2c(ncn2CC)CCN1C(=O)NC(C)C (stereo not drawn) — higher, 155 °C
